Experimental data as given in patent publication US20100310504A1, “METHODS FOR TREATING FIBROSIS BY MODULATING CELLULAR SENESCENCE” (priority 2007, published 2010).
Entries after “also recorded” stand apart in the source; their conditions may differ.

Assays:
liver = settings: mouse, in vivo
Experimental: Animals. […] Wild type, p53^−/−, INK4a/Arf^−/− and p53^−/−;INK4a/Arf^−/− mice were treated twice a week with 12 consecutive i.p. (intraperitoneal) injections of 1 ml/kg CCl4 to induce liver fibrosis. GFAP-tTA;TRE-shp53 mice were treated similarly for 2 weeks. Animals were sacrificed 48-72 hours after the last injection and their livers used for further analysis. To modify NK cell function, mice were treated three times weekly either i.v. with an anti-Asialo-GM1 antibody (25 μl in 200 μl saline, Wako, Va., USA) for 10 or 20 days or i.p. with polyI:C (Sigma, USA) 1 mg/kg.
Histological analysis. Paraffin embedded tissue sections were stained with hematoxylin-eosin for routine examination, or with Sirius Red for visualization of fibrotic deposition. At least 3 whole sections from each animal were scanned by Laser Scanner Cytometry (CompuCyte, MA) for fibrosis quantification. These images were quantified using NIH ImageJ software (http://rsb.info.nih.gov/ij/). We calculated the amount of fibrotic tissue in diseased animals relatively to the basal amount of Sirius Red staining present in normal liver.
Frozen sections of liver tissue, or adherent cells were fixed with 0.5% Gluteraldehyde in PBS for 15 min, washed with PBS supplemented with 1 mM MgCl2 and stained for 5-6 hrs in PBS containing 1 mM MgCl2, 1 mg/ml X-Gal and 5 mM of each Potassium ferricyanide and Potassium ferrocyanide. Sections were counterstained with Eosin.
To investigate the relationship between fibrosis and cellular senescence, 7-9 week old female mice were subjected to a six week treatment with CCl4, a chemical widely used to induce fibrosis in experimental animals (Bataller and Brenner, 2005, J. Clin. Invest. 115, 209-218, the contents of which are hereby incorporated by reference).

senescent IMR-90 cells = assay: In vitro killing assay of growing and senescent IMR-90 cells by YT cells (NK cell line); type: cell-based, human; settings: range of target:effector cell ratios
Experimental: Tissue culture. Human IMR-90 foetal lung fibroblasts (ATCC) and primary human hepatic myofibroblasts (activated HSCs) (Dominion Pharmakine, Spain) were grown in standard conditions (Narita et al., 2003). Senescence was induced by prolonged culturing, etoposide (100 μM, Sigma, USA) treatment, or infection of IMR-90 cells with oncogenic rasV12 as described (Narita et al., 2003). For in vitro cytotoxicity assays, growing or senescent cells were plated in 6-well plates at 50,000 cells per well. 5×10^5 YT cells (from DSMZ, Germany) were subsequently added to target cells. The plates were incubated under normal conditions for 12 hours, and then NK cell cytotoxicity was determined using crystal violet staining of remaining adherent cells or followed with a Zeiss AxioObserver microscope equipped with 37° C. incubator hood and 6.3% CO2 cover.
To test if a Perforin mediated pathway is involved in senescent cell killing in vitro, the in vitro killing assays of growing and senescent IMR-90 cells were used (the assay is described at Krizhanovsky, V. et al., “Senescence of Activated Stellate Cells Limits Liver Fibrosis,” Cell, 134, 657-667 (Aug. 22, 2008), which is hereby incorporated by reference). Growing and senescent IMR-90 cells were incubated with different amounts of YT cells (NK cell line) in presence or absence of granule exocytosis pathway inhibitor Concanamycin A (CMA). […]

[1] = system: primary human activated HSCs; assay: Senescence induction in cultured primary human activated HSCs; type: cell-based; settings: etoposide 100 μM, within several days of treatment
[2] = system: senescent activated HSCs in fibrotic livers; assay: Fibrosis reversion and senescent cell clearance in CCl4 treated mice with modified NK cell function; type: in vivo, mouse
Experimental: Animals. […] GFAP-tTA mice were obtained from the Jackson Laboratory.
Sections were counterstained with Eosin.
Immunoblotting. Liver tissue was lysed in Laemmli buffer using a tissue homogenizer. Equal amounts of protein were separated on 12% SDS-polyacrylamide gels and transferred to PVDF membranes. Detection was performed using anti-αSMA (DakoCytomation, Denmark), anti-13Actin (AC-15, Sigma, USA).
Expression array analysis and quantitative RT-PCR. […] Affymetrix Human Genome U133 Plus 2.0Array were used to identify genes expressed in HSC.
To determine whether NK cells can target senescent cells in vivo and their impact on liver fibrosis, modulating NK cell function was tested for how it would influence the frequency of senescent activated HSCs and fibrosis resolution in livers obtained from mice following a six week course of CCl4 or at various times after ceasing treatment. To deplete NK cells mice were treated with neutralizing antibodies [anti-AsialoGM1 (Radaeva et al., 2006; Xue et al., 2007)] during the period following CCl4 withdrawal. Conversely, to enhance the immune response, we treated mice with polyinosinic-polycytidylic acid (polyI:C), which induces interferon-γ and enhances NK cell activity in the liver (Radaeva et al., 2006).

[3] = wild type mice after six week CCl4, treated 10 or 20 days following CCl4 withdrawal, compared to saline controls

## 3,5-diethoxycarbonyl-1,4-dihydrocollidine [DDC]
liver
  accumulation of senescent cells in livers of treated mice: accumulated

## ClC(Cl)(Cl)Cl [CCl4]
liver
  accumulation of senescent cells in livers of treated mice: accumulated in fibrotic livers
  increase in Sirius Red-positive area over untreated controls: 3 to 4 fold
  liver area Sirius Red-positive (quantitative laser scanning cytometry): Approximately 2%

## C/C=C/[C@H]1O[C@@](O)([C@@H](C)[C@H](O)[C@H](C)[C@H]2OC(=O)/C(OC)=C/C(C)=C/[C@@H](C)[C@@H](O)[C@@H](CC)[C@@H](O)[C@H](C)C/C(C)=C/C=C/[C@@H]2OC)C[C@@H](O[C@H]2C[C@@H](O)[C@H](OC(N)=O)[C@@H](C)O2)[C@@H]1C [CMA, Concanamycin A]
Senescent IMR-90 cells
  preferential killing of senescent cells by NK cells (YT) in presence of inhibitor: significantly inhibited

## COc1cc([C@@H]2c3cc4c(cc3[C@@H](O[C@@H]3O[C@@H]5CO[C@@H](C)O[C@H]5[C@H](O)[C@H]3O)[C@H]3COC(=O)[C@H]23)OCO4)cc(OC)c1O [etoposide]
[1]
  senescence of activated HSCs (proliferation stop, SA-β-gal activity, heterochromatic foci): undergo senescence

## polyinosinic-polycytidylic acid [polyI:C]
[2]; quantitative RT-PCR and immunoblot, 10 days treatment after CCl4, compared to saline
  αSMA mRNA and protein levels in fibrotic livers (activated HSC marker): decreased
[2]; [3]
  fibrosis / fibrotic tissue (Sirius Red staining): less fibrotic tissue; also recorded: depleted more efficiently
  senescent cells (SA-β-gal positive) in fibrotic liver: fewer senescent cells; also recorded: enhanced clearance of senescent cells
